These results are taken from ChEMBL document CHEMBL5346964, “Discovery of LNP1892: A Precision Calcimimetic for the Treatment of Secondary Hyperparathyroidism” (J Med Chem, 2023).

pEC50: −log10 of the molar value.

The nature of data set [1]: Microsomal stability in rat liver microsomes assessed as parent compound remaining at 1 uM measured upto 30 mins in presence of NADPH by LC-MS/MS analysis. Type of data set: ADME, Microsome. To be noted: read-out: Stability.
In data set [2] the target is T1, hERG (Homo sapiens, UniProt Q12809). The experiment in a line: Inhibition of hERG at 1 uM relative to control. It counts as toxicity. (hERG is a cardiac potassium channel; its block is linked to QT prolongation.)
T1 sequence (Q12809 whole entry): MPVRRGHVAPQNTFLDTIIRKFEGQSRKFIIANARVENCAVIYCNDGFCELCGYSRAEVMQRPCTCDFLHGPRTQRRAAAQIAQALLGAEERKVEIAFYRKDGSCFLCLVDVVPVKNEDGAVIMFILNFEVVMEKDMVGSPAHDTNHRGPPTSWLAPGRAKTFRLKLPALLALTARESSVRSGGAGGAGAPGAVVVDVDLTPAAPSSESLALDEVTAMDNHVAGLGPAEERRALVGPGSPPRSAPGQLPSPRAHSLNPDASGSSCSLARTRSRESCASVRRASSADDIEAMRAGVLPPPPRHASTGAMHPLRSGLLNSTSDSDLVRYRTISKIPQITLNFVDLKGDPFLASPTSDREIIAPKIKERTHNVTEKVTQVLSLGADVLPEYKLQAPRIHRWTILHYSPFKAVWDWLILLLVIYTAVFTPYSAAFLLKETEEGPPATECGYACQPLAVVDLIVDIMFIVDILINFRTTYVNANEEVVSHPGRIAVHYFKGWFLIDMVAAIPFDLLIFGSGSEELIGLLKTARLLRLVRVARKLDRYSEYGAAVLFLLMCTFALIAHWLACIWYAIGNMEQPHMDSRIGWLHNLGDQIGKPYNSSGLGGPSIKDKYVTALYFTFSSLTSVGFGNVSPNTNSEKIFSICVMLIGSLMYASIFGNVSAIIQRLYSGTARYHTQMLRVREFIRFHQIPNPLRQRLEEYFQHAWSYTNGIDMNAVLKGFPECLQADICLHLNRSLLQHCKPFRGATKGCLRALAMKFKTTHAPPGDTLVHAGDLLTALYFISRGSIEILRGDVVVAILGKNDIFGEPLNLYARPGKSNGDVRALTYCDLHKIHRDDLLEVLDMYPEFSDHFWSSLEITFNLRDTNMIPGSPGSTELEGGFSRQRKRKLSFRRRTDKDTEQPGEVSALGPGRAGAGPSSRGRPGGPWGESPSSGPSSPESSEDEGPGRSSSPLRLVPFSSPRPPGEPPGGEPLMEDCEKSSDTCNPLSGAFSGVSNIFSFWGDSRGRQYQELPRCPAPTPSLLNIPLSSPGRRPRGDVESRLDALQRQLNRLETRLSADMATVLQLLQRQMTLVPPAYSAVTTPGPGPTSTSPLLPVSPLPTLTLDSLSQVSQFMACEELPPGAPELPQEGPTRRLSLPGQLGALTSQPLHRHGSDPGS
Data set [3] deals with T2, CYP2D6 (Homo sapiens, UniProt P10635). The experiment in a line: Inhibition of CYP2D6 in human liver microsomes at 10 uM preincubated for 5 mins followed by NADPH addition by LC-MS/MS analysis relative to control. Type of data set: ADME, Microsome. In general terms: Microsomes from liver hold many membrane-bound enzymes, among them those of drug oxidation.
T2 sequence (P10635 whole entry): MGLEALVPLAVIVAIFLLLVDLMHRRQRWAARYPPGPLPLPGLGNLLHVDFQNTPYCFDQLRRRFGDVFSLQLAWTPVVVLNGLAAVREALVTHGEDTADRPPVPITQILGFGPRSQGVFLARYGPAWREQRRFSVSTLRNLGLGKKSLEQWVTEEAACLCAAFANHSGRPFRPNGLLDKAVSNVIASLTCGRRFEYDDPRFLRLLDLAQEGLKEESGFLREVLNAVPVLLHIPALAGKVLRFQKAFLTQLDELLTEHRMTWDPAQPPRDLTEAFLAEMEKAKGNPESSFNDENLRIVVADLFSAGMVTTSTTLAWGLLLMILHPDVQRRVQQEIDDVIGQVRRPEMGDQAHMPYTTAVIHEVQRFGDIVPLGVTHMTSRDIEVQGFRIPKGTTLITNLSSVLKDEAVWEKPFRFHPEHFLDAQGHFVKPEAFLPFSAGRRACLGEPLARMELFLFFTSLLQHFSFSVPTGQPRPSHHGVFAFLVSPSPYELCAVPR
A short description of data set [4]: Microsomal stability in human liver microsomes assessed as parent compound remaining at 1 uM measured upto 30 mins in presence of NADPH by LC-MS/MS analysis. To be noted: liver microsomes, read-out: Stability. Type of data set: ADME, Microsome.
The target of data set [5] is T1, hERG. Description: Inhibition of hERG at 10 uM relative to control. It counts as toxicity.
Data set [6] deals with T2, CYP2D6. The experiment in a line: Inhibition of CYP2D6 in human liver microsomes at 1 uM preincubated for 5 mins followed by NADPH addition by LC-MS/MS analysis relative to control. Type of data set: ADME, Microsome.
The target in data set [7] is T3, Extracellular calcium-sensing receptor (Homo sapiens, UniProt P41180).
T3 sequence (P41180 whole entry): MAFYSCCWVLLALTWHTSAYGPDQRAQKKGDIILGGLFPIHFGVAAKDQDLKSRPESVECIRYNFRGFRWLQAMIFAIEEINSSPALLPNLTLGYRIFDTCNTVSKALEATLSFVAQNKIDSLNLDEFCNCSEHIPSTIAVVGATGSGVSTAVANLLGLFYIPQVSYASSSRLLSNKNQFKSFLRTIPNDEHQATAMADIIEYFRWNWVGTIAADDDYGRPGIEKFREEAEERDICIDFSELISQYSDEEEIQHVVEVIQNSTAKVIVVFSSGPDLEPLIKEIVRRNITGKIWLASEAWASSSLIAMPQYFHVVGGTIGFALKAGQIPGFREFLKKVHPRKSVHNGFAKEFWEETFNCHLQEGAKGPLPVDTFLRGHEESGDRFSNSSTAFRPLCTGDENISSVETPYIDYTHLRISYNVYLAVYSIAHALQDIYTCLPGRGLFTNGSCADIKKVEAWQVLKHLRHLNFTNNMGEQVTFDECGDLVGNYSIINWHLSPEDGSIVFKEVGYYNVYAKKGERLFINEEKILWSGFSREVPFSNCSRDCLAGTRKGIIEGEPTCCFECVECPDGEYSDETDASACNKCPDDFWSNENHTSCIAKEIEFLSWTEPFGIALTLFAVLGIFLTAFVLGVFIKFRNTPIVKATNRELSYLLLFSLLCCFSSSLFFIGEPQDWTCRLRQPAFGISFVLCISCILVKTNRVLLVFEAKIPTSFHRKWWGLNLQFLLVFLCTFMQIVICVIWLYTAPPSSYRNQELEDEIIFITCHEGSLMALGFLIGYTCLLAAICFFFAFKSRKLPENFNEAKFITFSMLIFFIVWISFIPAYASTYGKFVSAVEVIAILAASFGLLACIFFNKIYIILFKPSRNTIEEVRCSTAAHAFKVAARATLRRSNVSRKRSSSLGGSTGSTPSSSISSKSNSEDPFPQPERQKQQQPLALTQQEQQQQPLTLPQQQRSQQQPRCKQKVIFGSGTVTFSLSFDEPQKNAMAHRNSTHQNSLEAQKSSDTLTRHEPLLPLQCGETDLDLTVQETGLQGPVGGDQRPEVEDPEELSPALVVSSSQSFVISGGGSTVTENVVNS
Description: Agonist activity at human CaSR expresssed in HEK293 cells in presence of glucose by Fluo4NW dye based FLIPR assay. Type of data set: functional, cell-based. To be noted: for pEC50: read-out: EC50; for EC50: hek293.

For `C[C@@H](NCC1CN(C(=O)c2ccccc2)c2ccccc2O1)c1cccc2ccccc12` (mixture of isomers; form 1), the remaining at 0.5 h, 1 µM in data set [1] was 0%; in data set [4] it was 3%. Further, the inhibition (as a rule, the relative decrease from the control value, in per cent) at 1 µM is 16% in data set [2] and 7% in data set [6]. For the same compound, the inhibition at 10 µM in data set [3] was determined as 72%; in data set [5], 52%. Further, in data set [7], the pEC50 (usually the negative decadic logarithm of the EC50, by convention in mol/L) was 7.68.

As to `C[C@@H](NC[C@H]1C[C@@H](c2cccc(C(=O)O)c2)c2ccccc2O1)c1cccc2ccccc12`, the remaining at 0.5 h, 1 µM turned out to be 31% in data set [1] and 42% in data set [4]. The inhibition at 10 µM in data set [3] stood at 35%. In addition, in data set [6], the inhibition at 1 µM was determined as 17%.

Take `C[C@@H](NCC1CN(c2ccccn2)c2ccccc2O1)c1cccc2ccccc12` (stereo partly specified): the remaining at 0.5 h, 1 µM turned out to be 5% in data set [1] and 2% in data set [4]. Besides, in data set [3], the inhibition at 10 µM was found to be 87%. Further, in data set [6], the inhibition at 1 µM amounted to 85%.

For the compound `C[C@@H](NC[C@H]1C[C@H](c2cccc(C(=O)O)c2)c2ccccc2O1)c1cccc2ccccc12`, the values for the remaining at 0.5 h, 1 µM in data set [1] and in data set [4] were 31% and 57%, respectively. Also, in data set [3], the inhibition at 10 µM is 24%. In addition, the inhibition at 1 µM in data set [6] stood at 8%.

`C[C@@H](NCC1CN(c2ccccc2)c2ccccc2O1)c1cccc2ccccc12` (mixture of isomers; form 2): the pEC50 in data set [7] is 6.94.

With `C[C@@H](NCC1CN(c2cccc(C(=O)O)c2)c2ccccc2O1)c1cccc2ccccc12` (mixture of isomers; form 1), the remaining at 0.5 h, 1 µM in data set [1] is 36%; in data set [4], 49%. In addition, the values for the inhibition at 1 µM in data set [2] and in data set [6] were -1% and 27%, respectively. The results for the inhibition at 10 µM in data set [3] and in data set [5] were 41% and -8%, respectively. Also, in data set [7], the pEC50 is 7.48.

`COc1ccc(N2CC(CN[C@H](C)c3cccc4ccccc34)Oc3ccccc32)cc1C(=O)O` (mixture of isomers; form 2): the negative logarithm of the EC50 (pEC50) in data set [7] is under 7.05.

For the compound `Cc1c(C(=O)O)cccc1[C@@H]1C[C@H](CN[C@H](C)c2cccc3ccccc23)Oc2ccccc21`, the values for the remaining at 0.5 h, 1 µM in data set [1] and in data set [4] were 52% and 47%, respectively. Moreover, in data set [3], the inhibition at 10 µM turned out to be 25%. Also, the inhibition at 1 µM in data set [6] worked out at 7%.

Take `C[C@@H](NCC1CN(c2cccc(CCC(=O)O)c2)c2ccccc2O1)c1cccc2ccccc12.Cl` (mixture of isomers): in data set [7], the EC50 result is given as “Not Active” and the pEC50 is 7.15.

Regarding `Cc1ccc([C@@H]2C[C@@H](CN[C@H](C)c3cccc4ccccc34)Oc3ccccc32)cc1C(=O)O`, the remaining at 0.5 h, 1 µM in data set [1] was determined as 47%; in data set [4], 74%. For the same compound, the inhibition at 1 µM in data set [2] was 4%; in data set [6] it was 8%. The inhibition at 10 µM is 41% in data set [3] and -1% in data set [5]. In addition, the pEC50 in data set [7] was 7.47.

As for `C[C@@H](NCC1CN(c2ccccc2)c2ccccc2O1)c1cccc2ccccc12` (mixture of isomers; form 1), the remaining at 0.5 h, 1 µM in data set [1] was found to be 3%; in data set [4], 1%. In addition, the inhibition at 1 µM came out at 14% in data set [2] and 87% in data set [6]. The inhibition at 10 µM in data set [5] is 26%. Besides, in data set [7], the pEC50 was 7.27.

With `C[C@@H](NCC1CN(c2ccccc2C(=O)O)c2ccccc2O1)c1cccc2ccccc12.Cl` (mixture of isomers), the EC50 result in data set [7] is reported as “Not Active”.

As to `Cc1ccc([C@H]2C[C@@H](CN[C@H](C)c3cccc4ccccc34)Oc3ccccc32)cc1C(=O)O`, the figures for the remaining at 0.5 h, 1 µM in data set [1] and in data set [4] were 62% and 74%, respectively. Also, the inhibition at 1 µM came to 9% in data set [2] and 7% in data set [6]. Moreover, the inhibition at 10 µM in data set [3] was determined as 32%; in data set [5] it was 1%. In addition, the pEC50 in data set [7] was 8.43.

For `Cc1cc(C(=O)O)cc([C@@H]2C[C@H](CN[C@H](C)c3cccc4ccccc34)Oc3ccccc32)c1`, the results for the remaining at 0.5 h, 1 µM in data set [1] and in data set [4] were 25% and 80%, respectively. The inhibition at 1 µM in data set [2] and in data set [6] was 0% each time. Besides, the inhibition at 10 µM in data set [3] is 33%; in data set [5] it was 6%. Further, the pEC50 in data set [7] was 8.08.

Regarding `C[C@@H](NC[C@H]1C[C@@H](c2ccc(F)c(C(=O)O)c2)c2ccccc2O1)c1cccc2ccccc12`, the remaining at 0.5 h, 1 µM in data set [1] turned out to be 40%; in data set [4] it was 94%. In addition, the inhibition at 10 µM in data set [3] stood at 25%. Further, the inhibition at 1 µM in data set [6] was determined as 5%.

As to `C[C@@H](NCC1CN(C)c2ccccc2O1)c1cccc2ccccc12` (stereo partly specified), the remaining at 0.5 h, 1 µM in data set [1] was 0%; in data set [4] it was 5%. The values for the inhibition at 1 µM in data set [2] and in data set [6] were 13% and 92%, respectively. In addition, the values for the inhibition at 10 µM in data set [3] and in data set [5] were 93% and 42%, respectively.

As for `C[C@@H](NCC1CNc2ccccc2O1)c1cccc2ccccc12` (stereo partly specified), the remaining at 0.5 h, 1 µM in data set [1] was determined as 0%; in data set [4], 18%. For the same compound, the inhibition at 1 µM in data set [2] was found to be 19%; in data set [6] it was 94%. For the same compound, the inhibition at 10 µM worked out at 94% in data set [3] and 97% in data set [5].

Take `Cc1cc(C(=O)O)cc(N2CC(CN[C@H](C)c3cccc4ccccc34)Oc3ccccc32)c1` (mixture of isomers; form 1): the negative-log EC50 (pEC50) in data set [7] was 7.08.

Consider `Cc1ccc(N2CC(CN[C@H](C)c3cccc4ccccc34)Oc3ccccc32)cc1C(=O)O` (mixture of isomers), for which the pEC50 in data set [7] is 7.15.

In the case of `C[C@@H](NCC1CN(CC(F)(F)F)c2ccccc2O1)c1cccc2ccccc12` (stereo partly specified), the values for the remaining at 0.5 h, 1 µM in data set [1] and in data set [4] were 5% and 10%, respectively. Moreover, the inhibition at 10 µM in data set [3] turned out to be 82%. For the same compound, the inhibition at 1 µM in data set [6] is 78%.

As for `C[C@@H](NCC1CN(c2cccc(C(=O)O)c2)c2ccccc2O1)c1cccc2ccccc12` (mixture of isomers; form 2), in data set [7], the pEC50 was 6.84.

On to `COc1ccc(N2CC(CN[C@H](C)c3cccc4ccccc34)Oc3ccccc32)cc1C(=O)O` (mixture of isomers; form 1), for which the negative logarithm of the EC50 (pEC50) in data set [7] is under 6.52.

On to `Cc1cc(C(=O)O)cc(N2CC(CN[C@H](C)c3cccc4ccccc34)Oc3ccccc32)c1` (mixture of isomers; form 2), for which the pEC50 in data set [7] was 6.77.

Turning to `Cc1ccc(C(=O)O)cc1[C@@H]1C[C@H](CN[C@H](C)c2cccc3ccccc23)Oc2ccccc21`, the values for the remaining at 0.5 h, 1 µM in data set [1] and in data set [4] were 52% and 80%, respectively. Further, the figures for the inhibition at 1 µM in data set [2] and in data set [6] were 5% and 7%, respectively. Further, the inhibition at 10 µM in data set [3] was 36%; in data set [5], 2%.

For `COc1ccc([C@@H]2C[C@H](CN[C@H](C)c3cccc4ccccc34)Oc3ccccc32)cc1C(=O)O`, the remaining at 0.5 h, 1 µM in data set [1] came out at 88%; in data set [4] it was 77%. Besides, the inhibition at 1 µM in data set [2] is -3%; in data set [6], 0%. Besides, the results for the inhibition at 10 µM in data set [3] and in data set [5] were 0% and -4%, respectively.

Turning to `Cc1ccc([C@H]2C[C@H](CN[C@H](C)c3cccc4ccccc34)Oc3ccccc32)cc1C(=O)O`, in data set [7], the negative logarithm of the EC50 (pEC50) was 7.23.

Turning to `C[C@@H](NCC1CN(c2cccc(CC(=O)O)c2)c2ccccc2O1)c1cccc2ccccc12` (stereo partly specified), in data set [7], the negative-log EC50 (pEC50) is 6.98.

As to `C[C@@H](NCC1CN(C(=O)c2ccccc2)c2ccccc2O1)c1cccc2ccccc12` (mixture of isomers; form 2), the pEC50 in data set [7] was 7.05.

`C[C@@H](NCC1CN(c2ccc(F)c(C(=O)O)c2)c2ccccc2O1)c1cccc2ccccc12` (mixture of isomers; form 1): the figures for the remaining at 0.5 h, 1 µM in data set [1] and in data set [4] were 61% and 6%, respectively. Besides, the inhibition at 1 µM in data set [2] stood at 5%. The inhibition at 10 µM in data set [5] was determined as 21%.
